Data from publication PMC4869360, “An allosteric role for receptor activity-modifying proteins in defining GPCR pharmacology” (Cell Discovery, 2016).
Where no end group is shown, it is not given here.

What was measured:
[1] = Ala scan of an amylin analogue; cited from earlier work
Excerpt: Of the residues impacting on peptide function only R126 contributed to amylin or CGRP function but not that of CT. R126 in the CTR/RAMP complex sits in close proximity to W84 (RAMP1) that may form an interaction with the peptide C-terminus for amylin and CGRP, and thus may contribute to the orientation of the peptide C-terminus to allow this interaction. The net contribution of the RAMP interaction is a reordering of residues in loop 5 that facilitates the peptide turn of amylin and CGRP and interaction of the C-terminus with the W84 of the RAMP, with reorientation of loop 4 residues facilitat ...

[2] = system: CT(a) receptor ECD alanine mutants; experiment: 125I-hCT radioligand binding, CT(a) mutants; design: species or system human; details: Ala mutation of W79, F99, D101, F102, H121, W128 and Y131; ~50 pM, 1 h, 37 °C, whole Cos-7 cells
Excerpt: transfected with CT(a). […] Data are
binding observed for each peptide.
For C, D and E statistical

| 125I-hCT binding [2] | Substance | binding [1] |
| --- | --- | --- |
|  | V32: amylin analogue with V32 substitution, from Ala scan of ref 34 (KCNTATCATQRLANFLVHSSNNFGAILSSTNAGSNTY; ends and bridges not checked; cysteine pairing not given here; UniProt P10997 34-70, looked up, variant V32A) | abolishing binding |
|  | T30: amylin analogue with T30 substitution, from Ala scan of ref 34 (KCNTATCATQRLANFLVHSSNNFGAILSSANVGSNTY; ends and bridges not checked; cysteine pairing not given here; UniProt P10997 34-70, looked up, variant T30A) | abolishing binding |
| significantly reduced | ^125I-hCT: hCT radioiodinated with iodination bead, purified by reverse-phase HPLC |  |
